Test [1] concerns Mixed-species biofilms of S. aureus and P. aeruginosa. As to the kind of experiment: Mixed-species biofilm susceptibility, live/dead staining. Type of test: cell-based. The conditions noted are these: biofilms grown in collagen-coated plates for 24 hours.
Another test relates to primary human MSC cells. The test is described as follows: Wound healing array q-PCR gene expression in mesenchymal stem cells. The format is cell-based. The conditions noted are these: 8 hours treatment. The text has this:
To determine the role of synthetic Ceragenins CSA-13, 44 and 90 in wound healing using mesenchymal stem cells (MSC), targeted mRNA panels from SABiosciences, and primary cells from Lonza were selected. Cells were purchased from Lonza.com and used fresh for each test using recommended media and culture conditions. After treatment, mRNA was isolated using Qiagen RNeasy Mini Kit®, and quantified using a NanoDrop 2000® by UV at 260 nm and 260/280 ratio for purity. cDNA was made using a First Strand Kit® from SABiosciences and processed for real time PCR using a kit from the same company for selected analysis of wound healing pathways. Results from q-PCR were uploaded to the SABiosciences site and to Ingenuity.com web site for analysis and pathway mapping. SABiosciences wound healing array plates (Cat# PAHS-121) and innate/acquired immune response plates (PAHS-052) were used. These arrays are fully validated when used as recommended. On day 1, primary human MSC cells were plated at 200,000 cells/well using 6-well plates with 3 ml of recommended media—hMSC Basal Medium+BulletKit (50 ml Growth Supplement, 10 ml L-Glutamine and 0.5 ml Gentamicin Sulfate Amphotercin-B) for 24 hours. Only early passages of cells were used, and never from frozen stock. On day 2, cells were treated with compounds dissolved in DMSO diluted 1:1000 or more to avoid effects of the solvent. Final testing concentration for CSA-13 was 5.0 μM. Treatment lasted 8 hours, and was followed by RNA isolation using QIAGEN RNeasy Mini Kit® (74104). RNA was measured at 260/280 nm using a NanoDrop 2000® and normalized to 2.4 ng per well, cDNA preparation was done using QIAGEN First Strand kit 330401. q-PCR was run as absolute quantification and threshold set at 0.1 units. Dendritic cells were plated at 500,000 cells/well using 24-well plate with 500 ul of Lonza LGM-3 Complete Growth Medium with and without compound. Treatment lasted 8 hours, and was followed by RNA isolation using QIAGEN RNeasy Mini Kit® (74104). RNA was measured at 260/280 nm using NanoDrop2000® and normalized to 2.4 ng per well, cDNA preparation was done using QIAGEN First Strand kit 330401. PCR was run as absolute quantification and threshold set at 0.1 units. For the wound healing array, strong upregulation of growth factors such as HB-EGF and cell migration factors such as MMP1 and CXCL2 were found, indicating a clear potential for CSA as a modulator of wound healing. Additional gene expression data is provided in Tables 1-3 for CSA-13, 44, and 90, respectively.

These results are taken from patent US9603859B2, “Methods and products for increasing the rate of healing of tissue wounds” (BRIGHAM YOUNG UNIVERSITY, priority 2011, dated 2017).

Consider Dermaseptin S1, for which, in test [1], the anti-biofilm activity result is “increased in anti-biofilm activity when shortened to the first 15 amino acids”.

With `CCCCCN(CCCCC)CCC[C@@H](C)[C@H]1CC[C@H]2[C@@H]3[C@H](OCCCN)C[C@@H]4C[C@H](OCCCN)CC[C@]4(C)[C@H]3C[C@H](OCCCN)[C@]12C` [CSA-90], in the test with primary human MSC cells, the “Fold Regulation ACTA2” value is recorded as −2.5014, the “Fold Regulation ACTB” value is given as −2.0745, the “Fold Regulation CCL2” value was −1.5793 and the “Fold Regulation COL4A3” value was −1.6195. For the same compound, in the test with primary human MSC cells, the “Fold Regulation CTGF” value is given as −15.7171, the “Fold Regulation CTSK” value is 1.5366, the “Fold Regulation CTSL2” value amounted to 1.6306 and the “Fold Regulation EGFR” value came to 1.6212. Further, in the test on primary human MSC cells, the “Fold Regulation FGF7” value was determined as 5.1689, the “Fold Regulation HGF” value was found to be 2.3334, the “Fold Regulation IFNG” value is listed as 1.839 and the “Fold Regulation IGF1” value stood at 2.2724. Besides, in the test with primary human MSC cells, the “Fold Regulation ITGA3” value is recorded as −1.5127, the “Fold Regulation ITGB6” value is reported as 1.9381, the “Fold Regulation MMP9” value is reported as 2.5652 and the “Fold Regulation SERPINE1” value is −3.7307. Also, in the test on primary human MSC cells, the “Fold Regulation TGFBR3” value is listed as −1.5938, the “Fold Regulation TIMP1” value is 1.8212 and the “Fold Regulation WISP1” value is recorded as −2.3543. Also, in the test on primary human MSC cells (CSA-13 at 5.0 μM), the “Fold Regulation ANGPT1” value is given as −1.915, the “Fold Regulation CCL7” value was 2.2874, the “Fold Regulation CXCL1” value came to 3.1083 and the “Fold Regulation CXCL2” value is 36.5878. Further, in the test with primary human MSC cells (CSA-13 at 5.0 μM), the “Fold Regulation F13A1” value is reported as 2.1032, the “Fold Regulation FGF10” value is recorded as 1.9842, the “Fold Regulation HBEGF” value was 3.5988 and the “Fold Regulation IL2” value was found to be 1.8522. Further, in the test with primary human MSC cells (CSA-13 at 5.0 μM), the “Fold Regulation IL6” value is 7.2299, the “Fold Regulation IL10” value is recorded as −1.7382, the “Fold Regulation ITGA2” value is 14.3637 and the “Fold Regulation ITGB3” value is listed as −1.538. In addition, in the test with primary human MSC cells (CSA-13 at 5.0 μM), the “Fold Regulation MMP1” value was determined as 45.3753, the “Fold Regulation PLAT” value is −2.14, the “Fold Regulation PLAUR” value came to 1.9924 and the “Fold Regulation PTGS2” value is 66.6189. In addition, the “Fold Regulation VEGFA” value in the test with primary human MSC cells (CSA-13 at 5.0 μM) worked out at 3.3257.
